We go through four compounds from patent US20110039825A1, “LIGANDS OF ALPHA-ADRENOCEPTORS, DOPAMINE, HISTAMINE, IMIDAZOLINE AND SEROTONIN RECEPTORS AND THEIR USE” (Alla Chem, LLC, priority 2007, published 2011).

The structures appear in SMILES notation.

One experiment addresses T1, adrenergic receptor α1B (Rattus norvegicus, UniProt P15823).
T1 construct: membrane species from rat liver (rat of Wistar breed) are prepared; from tissue; host or cells: rat (Wistar) liver membranes
T1 sequence (P15823 1-515): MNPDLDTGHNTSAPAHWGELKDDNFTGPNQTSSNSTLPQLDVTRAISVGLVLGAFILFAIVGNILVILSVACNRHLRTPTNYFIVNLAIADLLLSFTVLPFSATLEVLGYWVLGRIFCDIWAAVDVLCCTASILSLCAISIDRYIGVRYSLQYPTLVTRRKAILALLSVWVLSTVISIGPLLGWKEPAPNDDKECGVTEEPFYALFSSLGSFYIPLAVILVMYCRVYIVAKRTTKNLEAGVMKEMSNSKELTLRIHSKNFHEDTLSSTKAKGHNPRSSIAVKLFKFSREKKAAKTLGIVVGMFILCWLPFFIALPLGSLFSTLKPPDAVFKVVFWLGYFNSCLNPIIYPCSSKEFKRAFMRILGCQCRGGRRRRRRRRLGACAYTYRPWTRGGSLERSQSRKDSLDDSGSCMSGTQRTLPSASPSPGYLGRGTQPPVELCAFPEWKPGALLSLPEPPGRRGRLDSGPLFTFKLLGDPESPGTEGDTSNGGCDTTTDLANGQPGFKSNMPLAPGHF
The experiment in a line: radioligand binding to adrenergic receptor α1B ([3H] Prazosin). The source says:
Species heterogeneity of hepatic α1A-, α1B-, and α1C-subtypes. Biochem Biophys Res Commun. 186:760-7676 1992]. […] Prazosin is used as positive control.

The target in the next experiment is T2, human α1D receptor (Homo sapiens, UniProt P25100).
T2 construct: expressed in transfected cells; host or cells: HEK-293
T2 sequence (P25100 1-572): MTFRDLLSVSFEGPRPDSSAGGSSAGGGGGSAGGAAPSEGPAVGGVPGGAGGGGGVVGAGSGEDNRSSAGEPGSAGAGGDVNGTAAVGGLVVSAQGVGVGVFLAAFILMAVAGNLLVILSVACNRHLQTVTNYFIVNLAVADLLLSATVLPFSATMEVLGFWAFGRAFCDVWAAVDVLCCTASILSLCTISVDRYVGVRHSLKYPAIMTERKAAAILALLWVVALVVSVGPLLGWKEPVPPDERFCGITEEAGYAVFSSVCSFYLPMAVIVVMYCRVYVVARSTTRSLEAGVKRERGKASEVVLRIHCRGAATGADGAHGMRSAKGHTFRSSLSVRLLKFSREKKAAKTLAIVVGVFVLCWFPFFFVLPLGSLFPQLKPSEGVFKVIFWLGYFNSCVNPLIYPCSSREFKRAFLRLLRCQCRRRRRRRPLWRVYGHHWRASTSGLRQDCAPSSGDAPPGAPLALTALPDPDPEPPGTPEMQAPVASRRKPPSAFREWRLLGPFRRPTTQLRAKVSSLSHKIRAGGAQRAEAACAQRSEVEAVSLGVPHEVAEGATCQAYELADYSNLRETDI
The experiment in a line: radioligand binding to adrenergic receptor α1D ([3H] Prazosin). From the text:
6-C. […] For this purpose sDNA of human α1D receptor is expressed in HEK-293 cells, as it was described in [T L Theroux, T A Esbenshade, R D Peavy and K P Minneman. Coupling efficiencies of human alpha 1-adrenergic receptor subtypes: titration of receptor density and responsiveness with inducible and repressible expression vectors. Mol. Pharmacol.; 50: 1376-1387, 1996]. […] Prazosin is used as positive control.

A further experiment concerns the target T3, human D2S receptor (Homo sapiens, UniProt P14416).
T3 construct: expressed in transfected cells; host or cells: CHO
The experiment in a line: radioligand binding to dopamine receptor D2S ([3H] Spiperone). The conditions noted are these: for Dopamine receptor D2S, % inhibition: 10 μM ligand. The source says:
7-C. […] For this purpose sDNA of human D2S receptor is expressed in CHO cells, as described in [Hayes G, Biden T J, Selbie L A and Shine J, Structural subtypes of the dopamine D2 receptor are functionally distinct. […] Mol. Endocrinol. […] Mol. Endocrinol. […] Spiperone is used as positive control.

Another experiment concerns the target T4, human D3 receptor (Homo sapiens, UniProt P35462).
T4 construct: expressed in transfected cells; host or cells: CHO
The experiment in a line: radioligand binding to dopamine receptor D3 ([3H] Spiperone). To be noted: for Dopamine receptor D3, % inhibition: 10 μM ligand. From the text:
For this purpose sDNA of human D3 receptor is expressed in CHO cells, as it was described in [Sokoloff P, Giros B, Martres M-P, Bouthenet M-L and Schwartz J-C. Molecular cloning and characterization of novel dopamine receptor (D3) as target for neuroleptics. Nature. […] Molecular cloning and characterization of novel dopamine receptor (D3) as target for neuroleptics. Nature. […] Spiperone is used as positive control.

In another experiment the test system is imidazoline receptor I2. The experiment in a line: radioligand binding to imidazoline receptor I2 ([3H] Idazoxan). Set-up: species or system rat. The method, then: Determination of investigated compounds' binding to imidazoline I2 receptor is carried out according to the method described in [Brown C M, MacKinnon A C, McGrath J C, Spedding M and Kilpatrick A T, a2-Adrenoceptor subtypes and imidazoline-like binding in the rat brain. Br J. Pharmacol. 99:803-809, 1990]. […] Idazoxan is used as positive control.

A further experiment concerns the target T5, adrenergic receptor α1A (Rattus norvegicus, UniProt P43140).
T5 construct: membrane species from rat submaxillary glands (rat of Wistar breed) are prepared; from tissue; host or cells: rat (Wistar) submaxillary gland membranes
T5 sequence (P43140 1-466): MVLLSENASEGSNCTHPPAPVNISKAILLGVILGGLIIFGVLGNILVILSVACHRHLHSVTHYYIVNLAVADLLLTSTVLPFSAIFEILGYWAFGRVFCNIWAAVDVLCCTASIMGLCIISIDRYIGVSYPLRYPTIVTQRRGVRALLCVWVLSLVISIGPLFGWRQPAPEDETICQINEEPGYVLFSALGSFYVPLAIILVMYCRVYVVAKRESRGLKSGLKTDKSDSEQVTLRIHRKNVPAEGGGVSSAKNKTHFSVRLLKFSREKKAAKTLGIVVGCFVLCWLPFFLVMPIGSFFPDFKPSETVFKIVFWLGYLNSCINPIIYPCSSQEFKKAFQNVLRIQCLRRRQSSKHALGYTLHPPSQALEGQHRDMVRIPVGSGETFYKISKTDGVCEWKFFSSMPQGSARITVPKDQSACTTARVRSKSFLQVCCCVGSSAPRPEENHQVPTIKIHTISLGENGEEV
The experiment in a line: radioligand binding to adrenergic receptor α1A ([3H] Prazosin). The method, then: Determination of investigated compounds' binding to α1A receptor was carried out according to the method described in [Michel A D, Loury D N and Whiting R l. Identification of a single α1A-adrenoceptor corresponding to the α1A-subtype in rat submaxillary gland. Br J. Pharmacol. 98:883-889, 1989]. […] Prazosin is used as positive control.

T4 sequence (P35462 whole entry): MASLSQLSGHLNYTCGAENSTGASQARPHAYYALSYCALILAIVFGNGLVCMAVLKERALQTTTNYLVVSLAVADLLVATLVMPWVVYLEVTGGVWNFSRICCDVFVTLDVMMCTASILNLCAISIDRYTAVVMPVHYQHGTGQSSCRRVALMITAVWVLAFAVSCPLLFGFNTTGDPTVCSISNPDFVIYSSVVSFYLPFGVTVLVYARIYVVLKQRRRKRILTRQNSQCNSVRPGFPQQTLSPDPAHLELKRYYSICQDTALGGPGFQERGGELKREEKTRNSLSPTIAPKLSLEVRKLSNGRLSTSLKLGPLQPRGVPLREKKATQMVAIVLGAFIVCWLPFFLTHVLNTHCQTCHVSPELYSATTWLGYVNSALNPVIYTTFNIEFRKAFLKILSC
T3 sequence (P14416 1-414 isoform P14416-2): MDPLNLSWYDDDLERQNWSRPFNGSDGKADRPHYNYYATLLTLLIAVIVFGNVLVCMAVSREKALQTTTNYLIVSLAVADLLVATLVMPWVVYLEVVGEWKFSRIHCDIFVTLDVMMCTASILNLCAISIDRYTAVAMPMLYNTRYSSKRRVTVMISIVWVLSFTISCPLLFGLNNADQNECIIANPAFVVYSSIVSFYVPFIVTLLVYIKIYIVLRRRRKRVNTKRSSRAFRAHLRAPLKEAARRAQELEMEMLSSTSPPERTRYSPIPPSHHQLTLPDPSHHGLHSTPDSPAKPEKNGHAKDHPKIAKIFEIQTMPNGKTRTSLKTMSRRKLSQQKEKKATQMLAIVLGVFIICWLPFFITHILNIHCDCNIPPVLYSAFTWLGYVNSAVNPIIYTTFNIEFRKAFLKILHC

As for `Cc1ccc2c(c1)[C@@H]1CN(C)CCC[C@@H]1N2CCc1ccc(C)nc1.Cl.Cl.Cl` (relative stereo) [1.6.1(2)•3HCl], on adrenergic receptor α1B (10 μM ligand), the “α-Adrenoceptor α1B, % inhibition” value is reported as 93%. The “α-Adrenoceptor α1D, % inhibition” value at human α1D receptor (10 μM ligand) stood at 87%. The “Dopamine receptor D2S, % inhibition” value on human D2S receptor was determined as 31%. Also, on human D3 receptor, the “Dopamine receptor D3, % inhibition” value is 41%. Further, the “imidazoline I2 receptor % inhibition” value in the experiment on imidazoline receptor I2 (10 μM ligand) is reported as 80%.
What is called IC50 is the concentration needed to halve the response being measured. Read a high IC50 as lower potency. What is called Ki is the dissociation constant of the complex between target and ligand, obtained from inhibition or displacement. The low end stands for higher affinity, the high end for lower affinity. As to `Cc1ccc2c(c1)c1c(n2CCc2ccccn2)CCN(C)C1.Cl.Cl` [1.1.2(2-3)•2HCl], the IC50 turned out to be 450 nM at adrenergic receptor α1A, 47 nM on adrenergic receptor α1B and 282 nM at human α1D receptor. Besides, the figures for the Ki on adrenergic receptor α1A, at adrenergic receptor α1B and at human α1D receptor were 182 nM, 26 nM and 139 nM, respectively. The “imidazoline I2 receptor % inhibition” value with imidazoline receptor I2 (10 μM ligand) is on record as 88%.
For `Cc1ccc2c(c1)[C@H]1CN(C)CCC[C@@H]1N2CCc1cccnc1` [1.6.2(10)•3HCl], on adrenergic receptor α1A (10 μM ligand), the “α-Adrenoceptor α1A, % inhibition” value was 86%. In addition, at adrenergic receptor α1B (10 μM ligand), the “α-Adrenoceptor α1B, % inhibition” value turned out to be 92%. The “α-Adrenoceptor α1D, % inhibition” value at human α1D receptor (10 μM ligand) was determined as 86%. Besides, on human D2S receptor, the “Dopamine receptor D2S, % inhibition” value was determined as 33%. Also, the “Dopamine receptor D3, % inhibition” value at human D3 receptor was 25%.
`CN1CCc2c(c3ccccc3n2Cc2ccccc2)C1` [1.9(1)•½NDSA, bis-(5-benzyl-2-methyl-2,3,4,5-tetrahydro-1H-pyrido[4,3-b]indole) naphtalene-1,5-disulfonate]: at adrenergic receptor α1A, the IC50 is 510 nM, the Ki is 206 nM and the “nH α1A” value was 1.08. In addition, the “α-Adrenoceptor α1A, % inhibition” value on adrenergic receptor α1A (1 μM ligand) was 67(1 μM) %. In addition, at adrenergic receptor α1B, the IC50 came out at 1580 nM, the Ki turned out to be 872 nM and the “nH α1B” value is on record as 0.956. Besides, the “α-Adrenoceptor α1B, % inhibition” value on adrenergic receptor α1B (3 μM ligand) was 62(3 μM) %. On human α1D receptor, the IC50 worked out at 1330 nM, the Ki is 656 nM and the “nH α1D” value is reported as 1.05. Moreover, the “α-Adrenoceptor α1D, % inhibition” value on human α1D receptor (3 μM ligand) is 70(3 μM) %. Further, on human D2S receptor, the IC50 was 3000 nM; the Ki worked out at 1080 nM; the “nH D2S” value is on record as 0.879; the “Dopamine receptor D2S, % inhibition” value is listed as 51%. For the same compound, at human D3 receptor, the IC50 turned out to be 1360 nM; the Ki was 462 nM; the “nH D3” value is recorded as 1.04; the “Dopamine receptor D3, % inhibition” value was 65%. In the experiment with imidazoline receptor I2 (0.3 μM ligand), the “imidazoline I2 receptor % inhibition” value is recorded as 87 (0.3 μM) %.
